Experimental findings from patent publication US9247759B2, “Identification of human T2R receptors that respond to bitter compounds that elicit the bitter taste in compositions, and the use thereof in assays to identify compounds that inhibit (block) bitter taste in compositions and use thereof” (SENOMYX, INC., priority 2007, dated 2016) are described below.

For orientation: melting point means the temperature, or range, at which the solid turns liquid. In general, IC50 refers to the concentration at which inhibition is half-maximal.

One series has as its target hT2R3 (Homo sapiens (Human), UniProt Q9NYW6). Kind of series: hT2R panel inhibition, transient HEK293 G16g44, agonist Chloroquine pH6.5 50 μM. The series is classed as cell-based. The note with it: receptor activated to EC80 with the corresponding agonist; for inhibition at 25 µM: HEK293, compound at 25 μM, read-out: screening result against bitter receptor 3. In short, it runs like this: (§1)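 One receptor per transfection, EC80 agonist, activity drop with compound = inhibition.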

The test system of a further series is hT2R67. Kind of series: hT2R panel inhibition, transient HEK293 G16g44, agonist Andrographolide 5 μM. The series is classed as cell-based, human. The settings on record: compound at 25 μM; receptor activated to EC80 with the corresponding agonist. The method, boiled down:
as §1

For another series, the system named is hT2R63. Kind of series: hT2R panel inhibition, transient HEK293 G16g44, agonist Caffeine 1 mM or Andrographolide 100 μM. The note with it: compound at 25 μM; receptor activated to EC80 with the corresponding agonist. The series is classed as cell-based, human. In short, it runs like this: as §1
In a further series the target is hT2R7 (Homo sapiens (Human), UniProt Q9NYW3). Kind of series: hT2R panel inhibition, transient HEK293 G16g44, agonist Chloroquine pH6.5 10 mM. The series is classed as cell-based. The settings on record: HEK293, compound at 25 μM; receptor activated to EC80 with the corresponding agonist; read-out: screening result against bitter receptor 7. The method, boiled down:
as §1

In another series the target is hT2R5 (Homo sapiens (Human), UniProt Q9NYW4). Kind of series: hT2R panel inhibition, transient HEK293 G16g44, agonist Picoline 10 mM. The note with it: HEK293, compound at 25 μM; receptor activated to EC80 with the corresponding agonist; read-out: screening result against bitter receptor 5. The series is classed as cell-based. The method, boiled down:
as §1

In the next series the target is hT2R71 (Homo sapiens (Human), UniProt P59536). Kind of series: hT2R panel inhibition, transient HEK293 G16g44, agonist Picric Acid 10 μM. The settings on record: receptor activated to EC80 with the corresponding agonist; for inhibition at 25 µM: HEK293, compound at 25 μM, read-out: screening result against bitter receptor 71. The series is classed as cell-based. In short, it runs like this:
as §1

A further series relates to hT2R55. Kind of series: hT2R panel inhibition, transient HEK293 G16g44, agonist Cinchonine 150 μM. The series is classed as cell-based, human. The note with it: compound at 25 μM; receptor activated to EC80 with the corresponding agonist. In short, it runs like this:
as §1

The target in series [1] is T1, hT2R8 (Homo sapiens (Human), UniProt Q9NYW2). Kind of series: hT2R panel inhibition, transient HEK293 G16g44, agonist Andrographolide 0.5 mM. The series is classed as cell-based. The note with it: HEK293, compound at 25 μM; receptor activated to EC80 with the corresponding agonist; read-out: screening result against bitter receptor 8. The protocol:
Specifically, in order to evaluate the inhibitory selectivity of the Compound C compound, this compound was tested against 22 human T2Rs which were deorphaned by Senomyx. These receptors and the bitter ligands that activate these human T2Rs are reported in earlier patent applications which are incorporated by reference herein. These 22 human T2Rs are hT2R1, 3, 4, 5, 7, 8, 9, 10, 13, 14, 16, 44, 51, 54, 55, 61, 63, 64, 65, 67, 71 and 75. The amino acid and nucleic acid sequences of all of these T2Rs may be found in these earlier patent applications. These human T2Rs were each individually transiently transfected into HEK293 cells that stably express the promiscuous G protein G16g44 and functional assays were effected using these receptors as disclosed in these same patent applications. […] The ligands were used at EC80 concentration levels. The list of bitter ligands utilized and the tested ligand concentrations are contained in Table 5 of this example.

Another series has as its target hT2R61 (Homo sapiens (Human), UniProt P59537). Kind of series: hT2R panel inhibition, transient HEK293 G16g44, agonist Aristolochic Acid 25 nM. The series is classed as cell-based. The note with it: HEK293, compound at 25 μM; receptor activated to EC80 with the corresponding agonist; read-out: screening result against bitter receptor 61. In short, it runs like this:
as §1

The target of another series is hT2R64 (Homo sapiens (Human), UniProt P59538). In words: hT2R panel inhibition, transient HEK293 G16g44, agonist Aristolochic Acid 1 μM. The series is classed as cell-based. The note with it: HEK293, compound at 25 μM; receptor activated to EC80 with the corresponding agonist; read-out: screening result against bitter receptor 64. In short, it runs like this:
as §1

Series [2] relates to bitter taste of instant coffee. In words: 2-alternative forced choice taste test, instant coffee with hT2R8 antagonists. The series is classed as in vivo, human. The note with it: antagonist 5 μM. Here is the method: Taste tests were performed with hT2R8 antagonists in instant coffee using a 2-alternative forced choice method with a taste panel of 15-20 panelists. Coffee samples with the antagonists were given to the taste panelists together with the same sample without antagonists, the panelists were asked to identify the bitterer sample within the pair.

Series [3] addresses T1, hT2R8. Kind of series: hT2R8 antagonist high-throughput FLIPR assay, stable cell line with G16g44, agonist andrographolide. The series is classed as cell-based. The note with it: read-out: IC50 on hT2R8 bitter receptor. In short, it runs like this: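 Antagonist screen: compounds co-applied with agonist andrographolide at 200 μM, a dose giving 70–80% of maximal hT2R8 activation. Fluorescence measured by FLIPR in a stable HEK293 line expressing both hT2R8 and the promiscuous G16g44 protein.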

Another series deals with hT2R44. Kind of series: hT2R panel inhibition, transient HEK293 G16g44, agonist Denatonium 0.5 μM. The series is classed as cell-based, human. The note with it: compound at 25 μM; receptor activated to EC80 with the corresponding agonist. In short, it runs like this:
as §1

A further series relates to hT2R65. In words: hT2R panel inhibition, transient HEK293 G16g44, agonist Oleuropein 1 mM. The series is classed as cell-based, human. The note with it: compound at 25 μM; receptor activated to EC80 with the corresponding agonist. The method, boiled down: as §1
Another series deals with hT2R51 (Homo sapiens (Human), UniProt P59533). Kind of series: hT2R panel inhibition, transient HEK293 G16g44, agonist Prop 2.5 μM. The series is classed as cell-based. The note with it: receptor activated to EC80 with the corresponding agonist. In short, it runs like this: as §1
Sequence of hT2R51 (P59533 whole entry): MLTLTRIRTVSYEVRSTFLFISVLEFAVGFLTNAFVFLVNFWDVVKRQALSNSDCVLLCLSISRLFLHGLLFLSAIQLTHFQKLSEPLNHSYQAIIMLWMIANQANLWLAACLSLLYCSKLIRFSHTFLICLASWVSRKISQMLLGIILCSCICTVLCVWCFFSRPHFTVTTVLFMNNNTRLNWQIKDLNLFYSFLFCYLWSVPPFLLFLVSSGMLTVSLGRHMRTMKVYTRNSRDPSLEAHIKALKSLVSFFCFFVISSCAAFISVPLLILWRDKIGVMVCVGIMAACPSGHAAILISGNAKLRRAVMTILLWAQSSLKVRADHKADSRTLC
In series [4] the target is T2, hT2R14 (Homo sapiens (Human), UniProt Q9NYV8). In words: hT2R panel inhibition, transient HEK293 G16g44, agonist Aristolochic Acid 2 μM. The series is classed as cell-based. The note with it: HEK293, compound at 25 μM; receptor activated to EC80 with the corresponding agonist; read-out: screening result against bitter receptor 14. The method, boiled down: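 Agonist challenge was at EC80, with 0.5 mM andrographolide on hT2R8 and 2 μM aristolochic acid on hT2R14. Inhibition was measured in functional assays in HEK293 cells that stably carry the promiscuous G protein G16g44 and were transiently transfected with the individual receptor.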
T2 sequence (Q9NYV8 whole entry): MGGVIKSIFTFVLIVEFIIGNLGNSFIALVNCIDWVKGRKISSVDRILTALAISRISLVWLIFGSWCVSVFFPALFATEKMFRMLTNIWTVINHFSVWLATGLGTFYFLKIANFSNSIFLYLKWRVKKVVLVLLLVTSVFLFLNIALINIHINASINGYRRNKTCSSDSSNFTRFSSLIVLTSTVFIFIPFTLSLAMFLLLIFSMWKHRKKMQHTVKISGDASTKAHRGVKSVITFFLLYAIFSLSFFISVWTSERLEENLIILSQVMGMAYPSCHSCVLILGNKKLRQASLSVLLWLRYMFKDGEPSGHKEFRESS

A further series addresses hT2R16 (Homo sapiens (Human), UniProt Q9NYV7). In words: hT2R panel inhibition, transient HEK293 G16g44, agonist Salicin 1 mM. The settings on record: HEK293, compound at 25 μM; receptor activated to EC80 with the corresponding agonist; read-out: screening result against bitter receptor 16. The series is classed as cell-based. In short, it runs like this: as §1
Another series deals with hT2R54. In words: hT2R panel inhibition, transient HEK293 G16g44, agonist Ranitidine 5 mM. The series is classed as cell-based, human. The note with it: compound at 25 μM; receptor activated to EC80 with the corresponding agonist. In short, it runs like this: as §1
A further series addresses hT2R10 (Homo sapiens (Human), UniProt Q9NYW0). In words: hT2R panel inhibition, transient HEK293 G16g44, agonist Strychnine 50 μM. The series is classed as cell-based. The settings on record: receptor activated to EC80 with the corresponding agonist.
Series [5] has as its target T2, hT2R14. In words: hT2R14 antagonist high-throughput FLIPR assay, stable cell line with G16g44, agonist aristolochic acid. The series is classed as cell-based. The note with it: Table C; read-out: hT2R14 IC50. In short, it runs like this: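 Compounds were co-applied with 3 μM aristolochic acid, a dose set to reach 70-80% of maximal hT2R14 activation. Read-out was FLIPR fluorescence in a stable HEK293 line co-expressing hT2R14 and G16g44.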

A further series concerns the target hT2R75 (Homo sapiens (Human), UniProt P59540). Kind of series: hT2R panel inhibition, transient HEK293 G16g44, agonist Strychnine 1 μM. The series is classed as cell-based. The note with it: HEK293, read-out: screening result against bitter receptor 75, compound at 25 μM; receptor activated to EC80 with the corresponding agonist.

A value given as a limit tells only on which side of the number the result lay.

Sequence of hT2R3 (Q9NYW6 whole entry): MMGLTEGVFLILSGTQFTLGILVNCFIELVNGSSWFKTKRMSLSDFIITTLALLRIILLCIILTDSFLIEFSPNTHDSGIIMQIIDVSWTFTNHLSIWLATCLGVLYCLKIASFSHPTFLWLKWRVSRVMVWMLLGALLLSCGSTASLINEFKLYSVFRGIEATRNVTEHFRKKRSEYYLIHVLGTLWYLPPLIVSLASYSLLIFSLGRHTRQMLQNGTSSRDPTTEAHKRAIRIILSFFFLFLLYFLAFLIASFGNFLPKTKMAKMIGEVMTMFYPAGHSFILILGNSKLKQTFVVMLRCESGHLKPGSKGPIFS
T1 sequence (Q9NYW2 whole entry): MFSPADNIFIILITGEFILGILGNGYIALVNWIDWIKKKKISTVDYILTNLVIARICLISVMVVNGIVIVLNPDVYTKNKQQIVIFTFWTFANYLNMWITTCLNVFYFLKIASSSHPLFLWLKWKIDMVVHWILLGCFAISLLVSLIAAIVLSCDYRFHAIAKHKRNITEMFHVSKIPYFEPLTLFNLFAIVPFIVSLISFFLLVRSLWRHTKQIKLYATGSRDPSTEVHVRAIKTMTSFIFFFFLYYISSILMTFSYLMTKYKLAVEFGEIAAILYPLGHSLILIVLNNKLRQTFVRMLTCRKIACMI
Sequence of hT2R71 (P59536 whole entry): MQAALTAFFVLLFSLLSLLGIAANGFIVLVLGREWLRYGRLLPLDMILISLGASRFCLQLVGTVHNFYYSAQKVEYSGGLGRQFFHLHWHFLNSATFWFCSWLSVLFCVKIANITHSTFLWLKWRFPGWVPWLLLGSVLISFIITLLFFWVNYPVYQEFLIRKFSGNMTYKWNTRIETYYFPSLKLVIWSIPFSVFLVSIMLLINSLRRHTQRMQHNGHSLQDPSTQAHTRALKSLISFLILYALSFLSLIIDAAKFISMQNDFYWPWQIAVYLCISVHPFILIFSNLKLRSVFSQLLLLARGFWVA
Sequence of hT2R61 (P59537 whole entry): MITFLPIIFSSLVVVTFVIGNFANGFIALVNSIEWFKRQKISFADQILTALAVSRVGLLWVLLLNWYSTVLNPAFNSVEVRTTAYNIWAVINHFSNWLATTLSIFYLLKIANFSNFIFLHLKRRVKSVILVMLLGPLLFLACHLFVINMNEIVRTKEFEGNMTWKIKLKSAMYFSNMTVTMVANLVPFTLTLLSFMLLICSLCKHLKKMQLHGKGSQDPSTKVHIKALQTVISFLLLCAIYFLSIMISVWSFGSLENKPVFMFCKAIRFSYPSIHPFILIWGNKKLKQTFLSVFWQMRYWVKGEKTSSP
Sequence of hT2R64 (P59538 whole entry): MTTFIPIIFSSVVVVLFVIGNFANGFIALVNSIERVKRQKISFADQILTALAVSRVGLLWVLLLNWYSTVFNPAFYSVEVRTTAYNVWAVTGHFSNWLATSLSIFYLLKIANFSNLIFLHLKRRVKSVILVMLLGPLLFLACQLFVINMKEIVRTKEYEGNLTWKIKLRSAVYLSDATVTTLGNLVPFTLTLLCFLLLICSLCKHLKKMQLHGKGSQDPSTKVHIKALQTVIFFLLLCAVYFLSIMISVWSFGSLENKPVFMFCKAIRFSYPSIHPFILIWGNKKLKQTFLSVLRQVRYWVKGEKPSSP
Sequence of hT2R5 (Q9NYW4 whole entry): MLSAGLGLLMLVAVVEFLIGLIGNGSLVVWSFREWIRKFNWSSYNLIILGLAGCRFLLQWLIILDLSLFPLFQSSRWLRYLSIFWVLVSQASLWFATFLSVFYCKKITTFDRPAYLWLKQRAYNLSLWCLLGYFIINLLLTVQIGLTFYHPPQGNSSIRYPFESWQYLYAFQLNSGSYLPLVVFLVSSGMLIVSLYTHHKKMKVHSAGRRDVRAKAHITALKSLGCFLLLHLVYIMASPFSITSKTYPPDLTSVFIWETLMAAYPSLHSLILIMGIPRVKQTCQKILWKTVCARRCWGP
Sequence of hT2R7 (Q9NYW3 whole entry): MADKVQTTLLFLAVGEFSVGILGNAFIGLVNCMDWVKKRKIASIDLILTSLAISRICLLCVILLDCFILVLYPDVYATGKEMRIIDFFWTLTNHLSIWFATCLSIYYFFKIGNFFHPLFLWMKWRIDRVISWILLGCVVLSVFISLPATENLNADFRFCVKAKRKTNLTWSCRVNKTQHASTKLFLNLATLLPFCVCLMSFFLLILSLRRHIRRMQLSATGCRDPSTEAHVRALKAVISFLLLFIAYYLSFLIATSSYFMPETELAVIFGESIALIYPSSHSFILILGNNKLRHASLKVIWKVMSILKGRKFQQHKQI
Sequence of hT2R10 (Q9NYW0 whole entry): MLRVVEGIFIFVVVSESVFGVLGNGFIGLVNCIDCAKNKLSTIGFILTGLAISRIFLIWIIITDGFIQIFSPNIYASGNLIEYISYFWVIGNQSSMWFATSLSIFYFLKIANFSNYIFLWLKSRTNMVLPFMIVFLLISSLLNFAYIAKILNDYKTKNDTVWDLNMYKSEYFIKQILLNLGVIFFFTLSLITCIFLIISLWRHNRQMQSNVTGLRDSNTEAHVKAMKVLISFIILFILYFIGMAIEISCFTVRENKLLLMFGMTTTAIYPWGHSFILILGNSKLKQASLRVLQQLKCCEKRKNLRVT
Sequence of hT2R75 (P59540 whole entry): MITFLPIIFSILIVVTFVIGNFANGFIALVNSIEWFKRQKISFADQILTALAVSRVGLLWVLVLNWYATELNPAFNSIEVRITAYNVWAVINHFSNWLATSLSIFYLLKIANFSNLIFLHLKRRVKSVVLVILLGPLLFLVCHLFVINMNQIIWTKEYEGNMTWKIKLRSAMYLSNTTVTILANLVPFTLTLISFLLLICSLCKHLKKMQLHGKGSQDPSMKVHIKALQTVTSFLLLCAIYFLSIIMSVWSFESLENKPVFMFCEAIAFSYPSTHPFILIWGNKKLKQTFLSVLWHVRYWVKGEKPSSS
Sequence of hT2R16 (Q9NYV7 whole entry): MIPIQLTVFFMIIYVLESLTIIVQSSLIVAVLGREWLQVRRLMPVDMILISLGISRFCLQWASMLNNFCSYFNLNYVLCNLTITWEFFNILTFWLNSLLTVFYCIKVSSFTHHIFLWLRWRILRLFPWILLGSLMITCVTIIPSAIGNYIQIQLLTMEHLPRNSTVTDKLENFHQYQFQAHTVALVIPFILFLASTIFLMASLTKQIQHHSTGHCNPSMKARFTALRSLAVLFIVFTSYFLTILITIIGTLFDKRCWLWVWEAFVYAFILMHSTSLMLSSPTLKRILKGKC

For the compound `COc1ccc(CN(Cc2ccsc2)S(=O)(=O)c2ccc(C(=O)O)cc2)cc1` [Example 5-62, 4-(N-(4-methoxybenzyl)-N-(thiophen-3-ylmethyl)sulfamoyl)benzoic acid], the inhibition at 25 µM at hT2R3 fell in the range of 20 to 40%; at hT2R7 it was 20 to 40%; at hT2R5, 20 to 40%; at hT2R71 it was 20 to 40%; at hT2R8 [1], 20 to 40%; at hT2R61, 40 to 60%. Further, on hT2R64, the inhibition at 25 µM lay in the range of 40 to 60%. Moreover, the “screening result against bitter receptor 67” value in the series with hT2R67 is recorded as “+ (20% to 40% inhibition = +)”. Besides, in the series with hT2R63, the “screening result against bitter receptor 63” value was “++++ (80% or greater inhibition = ++++)”. Further, in the series on hT2R55, the “screening result against bitter receptor 55” value is given as “+++ (60% to 80% inhibition = +++)”.
The compound `COc1cc(O)cc(CN2C(=O)N(c3cnn(Cc4c(C)noc4C)c3)C(=O)C2(C)C)c1` [Example 12-17, 3-(1-((3,5-dimethylisoxazol-4-yl)methyl)-1H-pyrazol-4-yl)-1-(3-hydroxy-5-methoxybenzyl)-5,5-dimethylimidazolidine-2,4-dione] registered a melting point of 72 to 74 °C. In addition, in series [2], the “Selected as bitterer: With antagonists” value is recorded as 3 and the “Selected as bitterer: Without antagonists” value came to 17. At hT2R8 [3], the IC50 was 20 nM.
For `O=C(O)c1ccc(S(=O)(=O)N(Cc2ccccc2)Cc2ccc(Cl)cc2)cc1` [Example 5-77, 4-(N-benzyl-N-(4-chlorobenzyl)sulfamoyl)benzoic acid], the inhibition at 25 µM was 40 to 60% on hT2R3; 20 to 40% at hT2R7; 20 to 40% on hT2R5; 40 to 60% on hT2R71; 40 to 60% on hT2R51 (HEK293, compound at 25 μM, read-out: screening result against bitter receptor 51); greater than 80% on hT2R14 [4]. The inhibition at 25 µM on hT2R8 [1] fell in the range of 20 to 40%; on hT2R16, 20 to 40%; at hT2R10 (HEK293, read-out: screening result against bitter receptor 10, compound at 25 μM) it was 20 to 40%; on hT2R61, 60 to 80%; at hT2R64 it was 40 to 60%. In addition, the “screening result against bitter receptor 44” value in the series with hT2R44 is listed as “+ (20% to 40% inhibition = +)”. For the same compound, the “screening result against bitter receptor 67” value with hT2R67 was “+ (20% to 40% inhibition = +)”. In the series with hT2R63, the “screening result against bitter receptor 63” value is listed as “+++ (60% to 80% inhibition = +++)”. In the series with hT2R65, the “screening result against bitter receptor 65” value was “++ (40% to 60% inhibition = ++)”. In addition, the “screening result against bitter receptor 55” value in the series on hT2R55 is recorded as “++ (40% to 60% inhibition = ++)”. Also, the “screening result against bitter receptor 54” value in the series on hT2R54 is “++ (40% to 60% inhibition = ++)”.
For the compound `COc1ccc(CN(Cc2ccc(F)cc2)S(=O)(=O)c2ccc(C(=O)O)cc2)cc1` [Example 5-69, 4-(N-(4-fluorobenzyl)-N-(4-methoxybenzyl)sulfamoyl)benzoic acid], the “screening result against bitter receptor 3” value at hT2R3 (compound at 25 μM) is on record as “+ (20% to 40% inhibition = +)”. Further, the “screening result against bitter receptor 44” value in the series on hT2R44 is given as “+ (20% to 40% inhibition = +)”. The “screening result against bitter receptor 63” value with hT2R63 is on record as “++++ (80% or greater inhibition = ++++)”. Further, the IC50 on hT2R14 [5] amounted to 8.28 µM. Also, the inhibition at 25 µM on hT2R5 is 20 to 40%; at hT2R14 [4] it was greater than 80%; on hT2R8 [1] it was 20 to 40%; on hT2R75, 20 to 40%; on hT2R61 it was 60 to 80%; on hT2R64, 40 to 60%. Besides, the “screening result against bitter receptor 71” value at hT2R71 (compound at 25 μM) was “+ (20% to 40% inhibition = +)”. For the same compound, the “screening result against bitter receptor 51” value at hT2R51 (compound at 25 μM) is “++ (40% to 60% inhibition = ++)”. Further, the “screening result against bitter receptor 55” value in the series on hT2R55 is listed as “+++ (60% to 80% inhibition = +++)”. The “screening result against bitter receptor 10” value on hT2R10 (compound at 25 μM) was “+ (20% to 40% inhibition = +)”.
